This is an account of results in US20090247624A1, “FORMULATIONS OF RADIOPROTECTIVE ALPHA BETA UNSATURATED ARYL SULFONES” (Onconova Therapeutics Inc., priority 2006, published 2009).

One data set relates to C57 black mice. The data set is described as follows: Protection of mice from radiation toxicity by pre-treatment. In kind it is in vivo. The procedure:
C57 black mice age 10-12 weeks (Taconic) were divided into two treatment groups of 10 mice each. One group, designated the “200×2” group, received intraperitoneal injections of 200 micrograms (E)-4-carboxystyryl-4-chlorobenzylsulfone dissolved in DMSO (a 10 mg/Kg dose, based on 20 g mice) 18 and 6 hours before irradiation with 8 Gy gamma radiation. The other group, designated “500×2,” received intraperitoneal injections of 500 micrograms (E)-4-carboxystyryl-4-chlorobenzylsulfone dissolved in DMSO (a 25 mg/Kg dose, based on 20 g mice) 18 and 6 hours before irradiation with 8 Gy gamma radiation. A control group of 16 animals received 8 Gy gamma radiation alone.

A further data set relates to HFL-1 cells. As to the kind of experiment: Radioprotective effects on cultured normal cells (colony count). Format: cell-based, human. As to conditions: 2.5 to 20 micromolar for 24 hrs before 10 Gy or 15 Gy; colonies on test plates / control plates. The protocol:
HFL-1 cells, which are normal diploid lung fibroblasts, were plated into 24 well dishes at a cell density of 3000 cells per 10 mm^2 in DMEM completed with 10% fetal bovine serum and antibiotics. The test compounds listed in Table 11 were added to the cells 24 hours later in select concentrations from 2.5 to 20 micromolar, inclusive, using DMSO as a solvent. Control cells were treated with DMSO alone. The cells were exposed to the test compound or DMSO for 24 hrs. The cells were then irradiated with either 10 Gy (gray) or 15 Gy of ionizing radiation (IR) using a J. L. Shepherd Mark I, Model 30-1 Irradiator equipped with ^137cesium as a source.
After irradiation, the medium on the test and control cells was removed and replaced with fresh growth medium without the test compounds or DMSO. The irradiated cells were incubated for 96 hours and duplicate wells were trypsinized and replated onto 100 mm^2 tissue culture dishes. The replated cells were grown under normal conditions with one change of fresh medium for 3 weeks. The number of colonies from each 100 mm^2 culture dish, which represents the number of surviving cells, was determined by staining the dishes as described below.
To visualize and count the colonies derived from the clonal outgrowth of individual radioprotected cells, the medium was removed and the plates were washed one time with room temperature phosphate buffered saline. The cells were stained with a 1:10 diluted Modified Giemsa staining solution (Sigma) for 20 minutes. The stain was removed, and the plates were washed with tap water. The plates were air dried, the number of colonies from each plate were counted and the average from duplicate plates was determined.
A “+” indicates radioprotective activity of between 2- and 4.5-fold at the concentrations tested. Fold protection was determined by dividing the average number of colonies from the test plates by the average number of colonies on the control plates.

The test system of the next data set is human. As to conditions: approximately 500 mg/kg iv continuously as 5 percent aqueous solution, one individual, four days; cited from earlier work.
The next data set relates to rodent species. The settings on record: after IP and IV administration to different rodent species; cited from earlier work.
The conditions of data set [1]: room temperature; cited from earlier work.
[2] abbreviates: “200×2” group: 10 mg/Kg i.p. 18 and 6 hours before 8 Gy gamma radiation.
Setting [3] is: “500×2” group: 25 mg/Kg i.p. 18 and 6 hours before 8 Gy gamma radiation.

Regarding `O=C(O)c1ccc(/C=C/S(=O)(=O)Cc2ccc(Cl)cc2)cc1` [Compound 13, (E)-4-Carboxystyryl-4-chlorobenzylsulfone], in the data set on C57 black mice (setting [2]), the “maximum mortality rate by day 40” value is reported as “approximately 60%” and the “mice dead at day 20” value is reported as “about 50%”. In addition, in the data set with C57 black mice (setting [3]), the “maximum mortality rate by day 40” value is reported as “about 50%” and the “mice dead at day 20” value was “about 30%”. Besides, the “Activity (radioprotection, fold protection)” value in the data set on HFL-1 cells is “+ (A “+” indicates radioprotective activity of between 2- and 4.5-fold at the concentrations tested)”.

In the case of `O=S(=O)(/C=C\c1ccc(F)cc1)Cc1ccc(Cl)cc1` [Compound 7, (Z)-4-Fluorostyryl-4-chlorobenzylsulfone], the “Activity (radioprotection, fold protection)” value with HFL-1 cells is “+ (A “+” indicates radioprotective activity of between 2- and 4.5-fold at the concentrations tested)”.

Regarding “(Z)-Styryl-(E)-2-methoxy-4-ethoxystyrylsulfone [Compound 11]”, the “Activity (radioprotection, fold protection)” value with HFL-1 cells is “+ (A “+” indicates radioprotective activity of between 2- and 4.5-fold at the concentrations tested)”.

As to `O=S(=O)(/C=C/c1ccc(F)cc1)Cc1ccc(Cl)cc1` [Compound 1, (E)-4-Fluorostyryl-4-chlorobenzylsulfone], the “Activity (radioprotection, fold protection)” value in the data set with HFL-1 cells is “+ (A “+” indicates radioprotective activity of between 2- and 4.5-fold at the concentrations tested)”.

Take “(E)-4-Fluorostyryl-4-trifluoromethylbenzylsulfone [Compound 5]”: the “Activity (radioprotection, fold protection)” value in the data set on HFL-1 cells is “+ (A “+” indicates radioprotective activity of between 2- and 4.5-fold at the concentrations tested)”.

Turning to “(E)-4-Fluorostyryl-4-chlorophenylsulfone [Compound 10]”, the “Activity (radioprotection, fold protection)” value in the data set on HFL-1 cells was “+ (A “+” indicates radioprotective activity of between 2- and 4.5-fold at the concentrations tested)”.

As for `O=S(=O)(/C=C/c1ccoc1)Cc1ccc(Cl)cc1Cl` [Compound 8, (E)-3-Furanethenyl-2,4-dichlorobenzylsulfone], the “Activity (radioprotection, fold protection)” value with HFL-1 cells is “+ (A “+” indicates radioprotective activity of between 2- and 4.5-fold at the concentrations tested)”.

On to “(E)-2,4,6-Trimethoxystyryl-4-methoxybenzylsulfone [Compound 2]”, for which the “Activity (radioprotection, fold protection)” value in the data set with HFL-1 cells was “+ (A “+” indicates radioprotective activity of between 2- and 4.5-fold at the concentrations tested)”.

As for “(E)-4-Fluorostyryl-4-cyanobenzylsulfone [Compound 6]”, the “Activity (radioprotection, fold protection)” value in the data set with HFL-1 cells was “+ (A “+” indicates radioprotective activity of between 2- and 4.5-fold at the concentrations tested)”.

As for Hydroxypropyl-B-Cyclodextrin [HPCD], the adverse clinical effects entry in the data set with human is “no adverse clinical effects were reported”. In the data set with rodent species, the toxicity entry was “non-toxic”. Also, the solubility in water entry in data set [1] is reported as “greater than 500 mg/ml”.
